Laboratory results taken from patent US20190055231A1, “BACE1 INHIBITORS” (Hoffmann-La Roche Inc., priority 2016, published 2019).

What was measured:
CSF Aβ40 = experiment: Rat single dose study, inhibition of CSF Aβ40 in Wistar rats; assay type: in vivo; settings: rat CSF Aβ40, 1 mg/kg, 4 h post dose
Experimental: Rat Single Dose PK Study (Inhibition of CSF Aβ40 in Wistar Rats)
The rat single dose PK study was described in H. Hilpert et al., J. Med. Chem. 2013, 56, 3980-3995 (dx.doi.org/10.1021/jm400225m) with slight modifications.
Aβ 40 concentration was determined without solid phase extraction following a modified protocol from Perkin-Elmer with a commercially available antibody against the N-terminal part of rat Aβ (252Q6, Invitrogen cat. No. AMB0062) and an in-house C-terminal specific anti-Aβ40 antibody (BAP-24, Brockhaus M. et al., J. Neuroreport, 1998, 9:1481-1486) bound to acceptor beads (PerkinElmer, Cat. 6772002). 20 μl analyte per well (reconstituted extracts or standard) were loaded to a White Optiplate-96 (Perkin-Elmer, Cat#6005290). Then, a mixture of biotinylated BAP24 antibody (1:2000 diluted at approximately 1 nM final concentration) and antibody 252Q6 bound to AlphaLISA acceptor beads (Perkin-Elmer cat. No. 6772002 (1:100 diluted, 10 ug/mL final concentration) in 1× AlphaLISA buffer (Perkin-Elmer, AL000F) was added. After 1 hour room temperature incubation in the dark, 20 μL of a streptavidin coated donor beads dilution (40 μg/mL) were added and incubated for 30 minutes in the dark. Light emission at 615 nm was recorded using an EnVision AlphaScreen Reader (Perkin-Elmer). Levels of Aβ 40 were calculated as percentage of the baseline samples from non-treated animals.

[1] = Cynomolgus monkey single dose PK study; assay type: in vivo, Cynomolgus monkey (Macacaca fascicularis)
Excerpt: Cynomolgus Monkey (Macacaca fascicularis) Single Dose PK Study and Plasma Aβ40 Determination
Blood and plasma collection will always be performed in the treatment cage. The animal care keeper grabs either one arm or one leg through the bars. The hairs are shaved for better visibility of the vein. The blood vessel is squeezed, the vein is punctured by using a butterfly and blood is taken. Once enough blood has been withdrawn a cotton swab is placed over the injection site and the needle is gently removed. Bleeding is stopped by pressing a cotton swab on the wound. Plasma samples were taken between 5 min and 48 h.
Plasma Preparation Cynomolgus
Blood is transferred into a labeled EDTA-K2 Eppendorf tube and the sample is mixed by inverting the tubes several times. Blood is stored at −20° C.

AUC(0-24)/D p.o. ([1]; p.o., dose normalized): 4160 kg·ng·h/mL/mg | clearance ([1]; plasma): 2.1 mL/min/kg | bioavailability ([1]; plasma, po, read-out: Oral Bioavailability F): 52% | half-life ([1]; plasma, po, read-out: t1/2 p.o. (converted)): 19 h
SMILES: Cc1cc(C#N)cnc1C(=O)Nc1ccc(F)c([C@@]2(C)N=C(N)O[C@H](C(F)(F)F)[C@@H]2F)n1 [Example 1, N-(6-((4R,5R,6S)-2-amino-5-fluoro-4-methyl-6-(trifluoromethyl)-5,6-dihydro-4H-1,3-oxazin-4-yl)-5-fluoropyridin-2-yl)-5-cyano-3-methylpicolinamide]
CSF Aβ-lowering 1 mg/kg at 4 h (CSF Aβ40): 80% | CSF Aβ-lowering 1 mg/kg at 4 h (CSF Aβ40; listed as example 1): 80%
